Laboratory results: patent US20260070945A1, “MACROCYCLIC IMMUNOMODULATORS” (Bristol-Myers Squibb Company, priority 2022, published 2026)
*1 amine or outer side, *2 acyl side, *3 side chain or, on linkers, in order; H or OH if unused. Where a SMILES comes first, the peptide text is derived from it. Bridges are numbered along the chain shown (N, C = ends). [ ]: non-standard residue; d: D form. The star is where a group is joined. ξ: configuration not given here. Phe(3-CF3) = N[C@@H](Cc1cccc(C(F)(F)F)c1)C(=O)O; Phe(4-COOH) = N[C@@H](Cc1ccc(C(=O)O)cc1)C(=O)O; d(γGlu) = O=C(O)[C@@H](CCC(=O)[*:2])N[*:1]; Bip = N[C@@H](Cc1ccc(-c2ccccc2)cc1)C(=O)O; NH(CH2)14COOH = O=C(O)CCCCCCCCCCCCCCN*; Phe(3-Me) = Cc1cccc(C[C@H](N)C(=O)O)c1; γGlu = O=C(O)[C@H](CCC(=O)[*:2])N[*:1]; NH(CH2)12COOH = O=C(O)CCCCCCCCCCCCN*; Val(3-OH) = CC(C)(O)[C@H](N)C(=O)O; Cha = N[C@@H](CC1CCCCC1)C(=O)O; Thr(3ξ) = CC(O)[C@H](N)C(=O)O; 12Ado = NCCCCCCCCCCCC(=O)O; Carboxymethyl = O=C(O)C*; NMeA = CN[C@@H](C)C(=O)O; Nle = CCCC[C@H](N)C(=O)O; Dab = NCC[C@H](N)C(=O)O; AEEA = NCCOCCOCC(=O)O

The compounds below were run against T1, PD-1/PD-L1 interaction (PE-labeled human PD-L1-Ig binding to Jurkat cell line over-expressing human PD-1) (Homo sapiens, UniProt Q15116) (assay: Jurkat-PD-1 Cell Binding High-Content Screening Assay (CBA)). Details: PE-labeled PD-L1-Ig 20 nM final, Jurkat-hPD-1 cells; read-out: Jurkat HPD1 PDL1 IC50.
T1 construct: expressed in transfected cells; host or cells: Jurkat
T1 sequence (Q15116 25-288): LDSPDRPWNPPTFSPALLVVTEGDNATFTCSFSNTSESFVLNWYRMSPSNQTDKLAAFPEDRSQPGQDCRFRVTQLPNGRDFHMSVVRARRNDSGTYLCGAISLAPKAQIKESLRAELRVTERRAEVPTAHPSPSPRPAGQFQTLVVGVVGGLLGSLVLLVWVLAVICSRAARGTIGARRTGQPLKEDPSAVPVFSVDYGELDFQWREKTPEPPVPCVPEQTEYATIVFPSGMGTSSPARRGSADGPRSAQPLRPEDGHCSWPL
How it was run: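 Binding of 20 nM (final) PE-tagged PD-L1-Ig to compound-pretreated Jurkat-hPD-1 cells was measured by high-content imaging after 1 h. Pretreatment ran 2 h at 37 °C in DMEM with 10% fetal calf serum.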
CC(=O)NCCCC[C@@H]1NC(=O)[C@H](C(C)(C)O)NC(=O)[C@H](CC2CCCCC2)NC(=O)[C@H](CCN)NC(=O)[C@@H](CC(C)C)NC(=O)[C@H](C)N(C)C(=O)[C@H](CCC(N)=O)NC(=O)[C@H](Cc2ccc(-c3ccccc3)cc2)NC(=O)[C@H](Cc2ccc(C(=O)O)cc2)NC(=O)[C@H](Cc2cccc(C(F)(F)F)c2)NC(=O)[C@H](CC(=O)O)NC(=O)[C@H](Cc2ccc(OCC(=O)O)cc2)NC(=O)[C@H](Cc2ccc(OCC(=O)O)cc2)NC(=O)CSC[C@@H](C(=O)N[C@@H](CCN)C(=O)NCCOCCOCC(=O)N[C@H](CCC(=O)N[C@H](CCC(=O)NCCOCCOCC(=O)NCCCCCCCCCCCCCCC(=O)O)C(=O)O)C(=O)O)NC1=O [Example 2655] ({CH2CO}-Y(Carboxymethyl)Y(Carboxymethyl)D[Phe(3-CF3)][Phe(4-COOH)][Bip]Q[NMeA][dL][Dab][Cha][Val(3-OH)]K(Ac)C[Dab][AEEA][d(γGlu)][d(γGlu)][AEEA]-{NH(CH2)14COOH}; thioether N-14) gave an IC50 of 584 nM.
Cc1cccc(C[C@@H]2NC(=O)[C@H](CC(=O)O)NC(=O)[C@H](Cc3ccc(OCC(=O)O)cc3)NC(=O)[C@H](C(C)O)NC(=O)CSC[C@@H](C(=O)N[C@@H](CCN)C(=O)NCCOCCOCC(=O)N[C@@H](CCC(=O)NCCOCCOCC(=O)NCCCCCCCCCCCCC(=O)O)C(=O)O)NC(=O)[C@H](CCC(=O)O)NC(=O)[C@H](C(C)C)NC(=O)[C@H](CC3CCCCC3)NC(=O)[C@H](CCN)NC(=O)[C@@H](CC(C)C)NC(=O)[C@H](C)N(C)C(=O)[C@H](Cc3ccc(OCC(=O)O)cc3)NC(=O)[C@H](Cc3ccc(-c4ccccc4)cc3)NC(=O)[C@H](Cc3ccc(OCC(=O)O)cc3)NC2=O)c1 (stereo partly drawn) [Example 2656] ({CH2CO}-[Thr(3ξ)]Y(Carboxymethyl)D[Phe(3-Me)]Y(Carboxymethyl)[Bip]Y(Carboxymethyl)[NMeA][dL][Dab][Cha]VEC[Dab][AEEA][γGlu][AEEA]-{NH(CH2)12COOH}; thioether N-14) was tested, and the IC50 was 85.6 nM.
For CCCC[C@@H]1NC(=O)CSC[C@@H](C(=O)N[C@@H](CCN)C(=O)NCCOCCOCC(=O)N[C@@H](CCC(=O)NCCOCCOCC(=O)NCCCCCCCCCCCCC(=O)O)C(=O)O)NC(=O)[C@H](CCC(=O)O)NC(=O)[C@H](C(C)C)NC(=O)[C@H](CC2CCCCC2)NC(=O)[C@H](CCN)NC(=O)[C@@H](CC(C)C)NC(=O)[C@H](C)N(C)C(=O)[C@H](Cc2ccc(OCC(=O)O)cc2)NC(=O)[C@H](Cc2ccc(-c3ccccc3)cc2)NC(=O)[C@H](Cc2ccc(OCC(=O)O)cc2)NC(=O)[C@H](Cc2cccc(C)c2)NC(=O)[C@H](CC(=O)O)NC(=O)[C@H](Cc2ccc(OCC(=O)O)cc2)NC1=O [Example 2657] ({CH2CO}-[Nle]Y(Carboxymethyl)D[Phe(3-Me)]Y(Carboxymethyl)[Bip]Y(Carboxymethyl)[NMeA][dL][Dab][Cha]VEC[Dab][AEEA][γGlu][AEEA]-{NH(CH2)12COOH}; thioether N-14), the IC50 was 88.3 nM.
CC(=O)NCCCC[C@@H]1NC(=O)[C@H](C(C)(C)O)NC(=O)[C@H](CC2CCCCC2)NC(=O)[C@H](CCN)NC(=O)[C@@H](CC(C)C)NC(=O)[C@H](C)N(C)C(=O)[C@H](Cc2ccc(OCC(=O)O)cc2)NC(=O)[C@H](Cc2ccc(-c3ccccc3)cc2)NC(=O)[C@H](Cc2ccc(OCC(=O)O)cc2)NC(=O)[C@H](Cc2cccc(C)c2)NC(=O)[C@H](CC(=O)O)NC(=O)[C@H](Cc2ccc(OCC(=O)O)cc2)NC(=O)[C@H](C(C)O)NC(=O)CSC[C@@H](C(=O)N[C@@H](CCN)C(=O)NCCOCCOCC(=O)N[C@@H](CCC(=O)NCCCCCCCCCCCCC(=O)O)C(=O)O)NC1=O (stereo partly drawn) [Example 2658] ({CH2CO}-[Thr(3ξ)]Y(Carboxymethyl)D[Phe(3-Me)]Y(Carboxymethyl)[Bip]Y(Carboxymethyl)[NMeA][dL][Dab][Cha][Val(3-OH)]K(Ac)C[Dab][AEEA]E(NH(CH2)12COOH)-OH; thioether N-14) was tested, and the IC50 was 23.6 nM.
For Cc1cccc(C[C@@H]2NC(=O)[C@H](CC(=O)O)NC(=O)[C@H](Cc3ccc(OCC(=O)O)cc3)NC(=O)[C@H]([C@@H](C)O)NC(=O)CSC[C@@H](C(=O)N[C@@H](CCN)C(=O)NCCOCCOCC(=O)NCCCCCCCCCCCC(=O)O)NC(=O)CNC(=O)[C@H](C(C)C)NC(=O)[C@H](CC3CCCCC3)NC(=O)[C@H](CCN)NC(=O)[C@@H](CC(C)C)NC(=O)[C@H](C)N(C)C(=O)[C@H](Cc3ccc(OCC(=O)O)cc3)NC(=O)[C@H](Cc3ccc(-c4ccccc4)cc3)NC(=O)[C@H](Cc3ccc(OCC(=O)O)cc3)NC2=O)c1 [Example 2664] ({CH2CO}-TY(Carboxymethyl)D[Phe(3-Me)]Y(Carboxymethyl)[Bip]Y(Carboxymethyl)[NMeA][dL][Dab][Cha]VGC[Dab][AEEA][12Ado]-OH; thioether N-14), the IC50 was 2.3 nM.
With Cc1cccc(C[C@@H]2NC(=O)[C@H](CC(=O)O)NC(=O)[C@H](Cc3ccc(OCC(=O)O)cc3)NC(=O)[C@H]([C@@H](C)O)NC(=O)CSC[C@@H](C(=O)N[C@@H](CCN)C(=O)NCCOCCOCC(=O)NCCCCCCCCCCCC(=O)O)NC(=O)[C@H](CCC(=O)O)NC(=O)[C@H](C(C)C)NC(=O)[C@H](CC3CCCCC3)NC(=O)[C@H](CCN)NC(=O)[C@@H](CC(C)C)NC(=O)[C@H](C)N(C)C(=O)[C@H](Cc3ccc(O)cc3)NC(=O)[C@H](Cc3ccc(-c4ccccc4)cc3)NC(=O)[C@H](Cc3ccc(OCC(=O)O)cc3)NC2=O)c1 [Example 2665] ({CH2CO}-TY(Carboxymethyl)D[Phe(3-Me)]Y(Carboxymethyl)[Bip]Y[NMeA][dL][Dab][Cha]VEC[Dab][AEEA][12Ado]-OH; thioether N-14) the IC50 was 1.2 nM.
Cc1cccc(C[C@@H]2NC(=O)[C@H](CC(=O)O)NC(=O)[C@H](Cc3ccc(OCC(=O)O)cc3)NC(=O)[C@H]([C@@H](C)O)NC(=O)CSC[C@@H](C(=O)N[C@@H](CCN)C(=O)NCCOCCOCC(=O)NCCCCCCCCCCCC(=O)O)NC(=O)[C@H](CCC(=O)O)NC(=O)[C@H](C(C)C)NC(=O)[C@H](CC3CCCCC3)NC(=O)[C@H](CCN)NC(=O)[C@@H](CC(C)C)NC(=O)[C@H](C)N(C)C(=O)[C@H](Cc3ccc(OCC(=O)O)cc3)NC(=O)[C@H](Cc3ccc(-c4ccccc4)cc3)NC(=O)[C@H](Cc3ccc(O)cc3)NC2=O)c1 [Example 2666] ({CH2CO}-TY(Carboxymethyl)D[Phe(3-Me)]Y[Bip]Y(Carboxymethyl)[NMeA][dL][Dab][Cha]VEC[Dab][AEEA][12Ado]-OH; thioether N-14) showed an IC50 of 0.7 nM.
Work on Cc1cccc(C[C@@H]2NC(=O)[C@H](CC(=O)O)NC(=O)[C@H](Cc3ccc(O)cc3)NC(=O)[C@H]([C@@H](C)O)NC(=O)CSC[C@@H](C(=O)N[C@@H](CCN)C(=O)NCCOCCOCC(=O)NCCCCCCCCCCCC(=O)O)NC(=O)[C@H](CCC(=O)O)NC(=O)[C@H](C(C)C)NC(=O)[C@H](CC3CCCCC3)NC(=O)[C@H](CCN)NC(=O)[C@@H](CC(C)C)NC(=O)[C@H](C)N(C)C(=O)[C@H](Cc3ccc(OCC(=O)O)cc3)NC(=O)[C@H](Cc3ccc(-c4ccccc4)cc3)NC(=O)[C@H](Cc3ccc(OCC(=O)O)cc3)NC2=O)c1 [Example 2667] ({CH2CO}-TYD[Phe(3-Me)]Y(Carboxymethyl)[Bip]Y(Carboxymethyl)[NMeA][dL][Dab][Cha]VEC[Dab][AEEA][12Ado]-OH; thioether N-14) yielded an IC50 of 0.3 nM.
